Values quoted from earlier work as cited in patent publication US20090214716A1 (priority 2005, published 2009).

What was measured:
[1] = biological target: T1, A2A receptors that are located on the platelet surface (Homo sapiens, UniProt P29274); settings: chronic caffeine consumption
T1 construct: up-regulation of endogenous adenosine receptors in normal subjects; host or cells: human platelets of normal subjects (endogenous)

[2] = caffeine 0.3 mg/kg/hr vs placebo

T1 sequence (P29274 whole entry): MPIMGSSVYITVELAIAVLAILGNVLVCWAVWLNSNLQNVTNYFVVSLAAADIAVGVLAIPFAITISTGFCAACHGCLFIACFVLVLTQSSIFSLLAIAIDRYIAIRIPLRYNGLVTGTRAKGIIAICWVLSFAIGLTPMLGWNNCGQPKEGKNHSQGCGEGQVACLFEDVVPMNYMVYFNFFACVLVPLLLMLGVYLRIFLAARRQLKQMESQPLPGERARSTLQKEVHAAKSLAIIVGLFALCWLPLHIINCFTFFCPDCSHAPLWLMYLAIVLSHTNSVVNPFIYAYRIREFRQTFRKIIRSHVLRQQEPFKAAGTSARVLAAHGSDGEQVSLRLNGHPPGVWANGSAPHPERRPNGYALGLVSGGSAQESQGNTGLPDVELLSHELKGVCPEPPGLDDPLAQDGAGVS

Cn1c(=O)c2c(ncn2C)n(C)c1=O [caffeine, 1,3,7-trimethylxanthine]
platelet aggregability [1]: reduction in platelet aggregability
effect on endogenous adenosine receptors ([1]; normal subjects): sensitization and/or up-regulation of endogenous adenosine receptors
performance on cognitive tests [2]: performed better on cognitive tests
reported sleepiness [2]: reported feeling sleepier than their placebo counterparts
